What was measured:
[1] = system: mesenteric arteries of normal mice; test: Flow-mediated dilatation of isolated mesenteric arteries from normal (sham-operated) mice; format: cell-based, C57BL6 mice; settings: 10^-5 M, compared with the roughly abolished response in CHF arteries (FIG. 1)
Procedure: The flow-mediated dilatation response in a normal mouse (open circles) is compared to the flow-mediated dilatation response of mesenteric arteries in either normal mouse subjected to an inhibitor of NO synthesis (left, black circles) or in a mouse wherein chronic heart failure (CHF) has been induced as described in Example 1 (right, black circles).
The development of heart failure is assessed by echocardiography in the closed chest state 7 days and 2 months after coronary ligation. Sham-operated (normal) mice are subjected to the same protocol except that the artery is not be ligated. Six mice are present in each group and mice that survived myocardial infarction are further used in the study.
After two months, the mice is anesthetized and subjected to laparotomy (incision into the abdominal cavity).
A portion of the mesenteric artery (diameter 250-350 μm) is carefully isolated under a dissection microscope, and a 1.5to 2.0-mm length segment is cannulated on both ends, transferred to an arteriograph (Living Systems Instrumentation) and pressurized to 60 mm Hg.
(§1) Flow-mediated vasodilatation (FMD), i.e. changes in vessel diameter in response to stepwise increases in intra-luminal flow (0-200 μl/min) is evaluated after preconstriction by phenylephrine (incubated 2min at 10^-5 M) after a contraction plateau is reached, at baseline and after incubation with a compound of the invention: […]

[2] = system: mesenteric arteries of mice with chronic heart failure; test: Flow-mediated dilatation of isolated mesenteric arteries from mice with chronic heart failure (coronary artery occlusion model); format: cell-based, C57BL6 mice; settings: CHF mouse arteries, in-vitro incubation 30 min, preconstriction by phenylephrine
Text: Experimentally, flow-induced release of NO in small peripheral arteries (i.e. arteries that contribute to the increased resistance in heart failure) may be assessed in vitro in isolated perfused, pressurized arteries such as small (<300 μm diameter) mesenteric or hindquarter arteries.
Chronic heart failure is induced in C57BL6 mice (n=12) by coronary ligation according to the model developed in rats by Varin et al,1999, Circulation, 99, 2951-2957.
Mice are anesthetized, ventilated and a thoracotomy (incision of the pleural cavity) is performed. The left main coronary artery is ligated close to its origin. This procedure leads to the development of an infarct involving around 40% of the left ventricle. Post-infarction mortality in this mouse model is around 40-50%.
The development of heart failure is assessed by echocardiography in the closed chest state 7 days and 2 months after coronary ligation. Sham-operated (normal) mice are subjected to the same protocol except that the artery is not be ligated. […]
as §1

Compound | inhibition of the flow-mediated dilatation response [1] | flow-mediated dilatation (% dilatation) restoration ([2]; 10^-5 M in Krebs buffer, flow 0-200 μl/min (FIG. 2 left)) | flow-mediated dilatation (% dilatation) restoration ([2]; 10^-6 M in Krebs buffer, flow 0-200 μl/min (FIG. 2 right))
N=C(NCCC[C@H](N)C(=O)O)N[N+](=O)[O-] [NG-nitro-L-arginine] | inhibition of the dilatation response is similar |  | 
CCCCCCc1ccc(C#Cc2ccc(CN(Cc3ccc(C(F)(F)F)cc3)C(=O)C(=O)O)cc2)cc1 [Compound 1, {{4-[(4-hexylphenyl)ethynyl]benzyl}[4-(trifluoromethyl)benzyl]amino}(oxo)acetic acid] |  | restored to the normal level | restored to the normal level
